Values joined by “and” are separate entries in the source; they are usually repeats but may differ in a detail not shown here. Equal entries are not always repeated. Square brackets hold non-standard residues; d marks the D form. Peptide text beside a SMILES is read from it. d(hArg(Et2)) = CCN=C(NCC)NCCCC[C@@H](N)C(=O)O; hArg(Et2) = CCN=C(NCC)NCCCC[C@H](N)C(=O)O; dPhe(4-Cl) = N[C@H](Cc1ccc(Cl)cc1)C(=O)O; d2Nal = N[C@H](Cc1ccc2ccccc2c1)C(=O)O; d3Pal = N[C@H](Cc1cccnc1)C(=O)O
What was measured:
LH blood hormone level [1] = assay: LH blood level under conventional GnRH antagonist injection protocol (Example 1); assay type: in vivo, female patients
Protocol: Five female patients were treated with a GnRH antagonist protocol requiring injections of medications.
One patient, patient no. 1, was injected with 150 Units of FSH on days 3 to 12; half a syringe of 150 mcg/0.5 mL of ganirelix acetate on days 11 and 12; and 50 mg of clomiphene citrate on days 3 to 12; and 2.5 mg of letrozole on days 3 to 7. Luteinizing hormone (LH) blood level was 4.3 mIU/mL on day 10 and dropped to 2 mIU/mL on day 12.
A second patient, patient no. 2, was injected with 75 Units of FSH on days 4 to 12 and 150 Units on day 13; half a syringe of 150 mcg/0.5 mL of ganirelix acetate on days 11 to 13; 50 mg of clomiphene citrate on days 10 to 12, and 2.5 mg of letrozole on days 3 to 7. Luteinizing hormone (LH) blood level was 12.0 mIU/mL on day 11 and dropped to 6.3 mIU/mL on day 13.
Three patients, numbered 3 to 5, were injected with 75, 150 and 225 Units of FSH, respectively, on days 4 to 12 and one third a syringe of 150 mcg/0.5 mL of ganirelix acetate on days 11 to 13. Patient no. 3 received 50 mg of clomiphene citrate on days 4 to 12, and 2.5 mg of letrozole on days 4 to 8. Patient no. 4 received 100 mg of clomiphene citrate and 2.5 mg of letrozole on days 4 to 8, and 50 mg of clomiphene citrate on days 9 to 11. Patient no. 5 received no clomiphene citrate or letrozole. Luteinizing hormone (LH) blood level was 12.0, 18.0 and 14.6 mIU/mL, respectively, on day 10 and dropped to 4.9, 16.0 and 14.1 mIU/mL, respectively, on day 12.
Table 2 below provides a comparison of the efficacy of conventional Ganirelex/Cetrotide injectables treatment for IVF in the five representative patients from Example 1 with the home controlled ovarian hyperstimulation method described herein in the five representative patients from Example 2.

LH blood hormone level [2] = assay: LH blood level under home controlled ovarian hyperstimulation method with vaginal elagolix (Example 2); assay type: in vivo, female patients; conditions: lower dose of elagolix taken as a vaginal suppository instead of orally
Protocol: On day 9 of the menstrual cycle, the patient is directed to orally take 50 to 150 mg, preferably 100 mg, (one, two, or three 50 mg oral tablets) of clomiphene citrate and to either insert vaginally or take orally, depending on the patient's preference, a gonadotropin-releasing hormone (GnRH) antagonist such as elagolix (marketed as ORILISSA®), instead of the expensive injections of ganirelix acetate (GANIRELEX®) or cetrorelix acetate (marketed as CETROTIDE®) used routinely in conventional practices. A dose of 25 mg (⅛^th of a pill) up to 200 mg of elagolix (1 full pill), preferably 25 mg, will be used, with the dose being the same whether inserted vaginally or taken orally. Elagolix is a GnRH antagonist that is conventionally used in the treatment of pain associated with endometriosis in women, not for the treatment of infertility. By blocking the GnRH receptor, elagolix suppresses LH release by the pituitary gland and thus prevents LH surge. Ultimately, elagolix suppresses gonadal steroid production, thereby reducing circulating levels of sex hormones such as progesterone, estradiol, and testosterone. Elagolix is generally an oral medication (oral tablet), however in the present method, elagolix is a tablet taken mainly as a vaginal suppository, but may be taken orally based on the patient's preference. […]

CCN=C(NCC)NCCCC[C@H](NC(=O)[C@H](CC(C)C)NC(=O)[C@@H](CCCCNC(=NCC)NCC)NC(=O)[C@H](Cc1ccc(O)cc1)NC(=O)[C@H](CO)NC(=O)[C@@H](Cc1cccnc1)NC(=O)[C@@H](Cc1ccc(Cl)cc1)NC(=O)[C@@H](Cc1ccc2ccccc2c1)NC(C)=O)C(=O)N1CCC[C@H]1C(=O)N[C@H](C)C(N)=O [Ganirelex, ganirelix acetate] (Ac-[d2Nal][dPhe(4-Cl)][d3Pal]SY[d(hArg(Et2))]L[hArg(Et2)]P[dA]-NH2) was tested. Which “LH blood hormone level AFTER medication intake” value (LH blood hormone level [1]; Example 1, one value per patient (patients 1-5), after ganirelix injections, listed as Conventional Ganielex/Cetrotide Injectables) did it give?
The value was 2.0 mIU/mL and 6.3 mIU/mL and 4.9 mIU/mL and 16.0 mIU/mL.

And the “LH blood hormone level BEFORE medication intake” value (LH blood hormone level [1]; Example 1, one value per patient (patients 1-5), before ganirelix injections, listed as Conventional Ganielex/Cetrotide Injectables)?
The value was 4.3 mIU/mL and 12.0 mIU/mL (2×) and 18.0 mIU/mL.

What about the “% Drop in blood LH hormone level” value (LH blood hormone level [1]; Example 1, one value per patient (patients 1-5), listed as Conventional Ganielex/Cetrotide Injectables) of the same compound?
Its value is 3.4%.

And the “Luteinizing hormone (LH) blood level” value (LH blood hormone level [1]; patient no. 1, day 10, half a syringe of 150 mcg/0.5 mL ganirelix acetate on days 11 and 12)?
Its value is 4.3 mIU/mL.

And the “drop in LH blood hormone levels” value (LH blood hormone level [1]; patient no. 1, day 10 to day 12)?
Its value is 53.5%.

What about the “Luteinizing hormone (LH) blood level” value (LH blood hormone level [1]; patient no. 1, day 12, half a syringe of 150 mcg/0.5 mL ganirelix acetate on days 11 and 12) of the same compound?
The value was 2 mIU/mL.

And the “Luteinizing hormone (LH) blood level” value (LH blood hormone level [1]; patient no. 2, day 11, half a syringe of 150 mcg/0.5 mL ganirelix acetate on days 11 to 13)?
The value was 12.0 mIU/mL.

What about the “drop in LH blood hormone levels” value (LH blood hormone level [1]; patient no. 2, day 11 to day 13) of the same compound?
Its value is 47.5%.

And the “Luteinizing hormone (LH) blood level” value (LH blood hormone level [1]; patient no. 2, day 13, half a syringe of 150 mcg/0.5 mL ganirelix acetate on days 11 to 13)?
The value was 6.3 mIU/mL.

And the “Luteinizing hormone (LH) blood level” value (LH blood hormone level [1]; patient no. 3, day 10, one third a syringe of 150 mcg/0.5 mL ganirelix acetate on days 11 to 13)?
Its value is 12.0 mIU/mL.

What about the “drop in LH blood hormone levels” value (LH blood hormone level [1]; patient no. 3, day 10 to day 12) of the same compound?
Its value is 59.25%.

What about the “Luteinizing hormone (LH) blood level” value (LH blood hormone level [1]; patient no. 3, day 12, one third a syringe of 150 mcg/0.5 mL ganirelix acetate on days 11 to 13) of the same compound?
The value was 4.9 mIU/mL.

And the “Luteinizing hormone (LH) blood level” value (LH blood hormone level [1]; patient no. 4, day 10, one third a syringe of 150 mcg/0.5 mL ganirelix acetate on days 11 to 13)?
Its value is 18.0 mIU/mL.

And the “drop in LH blood hormone levels” value (LH blood hormone level [1]; patient no. 4, day 10 to day 12)?
The value was 11.1%.

What about the “Luteinizing hormone (LH) blood level” value (LH blood hormone level [1]; patient no. 4, day 12, one third a syringe of 150 mcg/0.5 mL ganirelix acetate on days 11 to 13) of the same compound?
The value was 16.0 mIU/mL.

And the “Luteinizing hormone (LH) blood level” value (LH blood hormone level [1]; patient no. 5, day 10, one third a syringe of 150 mcg/0.5 mL ganirelix acetate on days 11 to 13, no clomiphene citrate or letrozole)?
The value was 14.6 mIU/mL.

And the “drop in LH blood hormone levels” value (LH blood hormone level [1]; patient no. 5, day 10 to day 12)?
Its value is 3.4%.

And the “Luteinizing hormone (LH) blood level” value (LH blood hormone level [1]; patient no. 5, day 12, one third a syringe of 150 mcg/0.5 mL ganirelix acetate on days 11 to 13, no clomiphene citrate or letrozole)?
The value was 14.1 mIU/mL.

For COc1cccc(-c2c(C)n(Cc3c(F)cccc3C(F)(F)F)c(=O)n(C[C@H](NCCCC(=O)O)c3ccccc3)c2=O)c1F [elagolix], which “effectiveness as GnRH antagonist in the patients” value (LH blood hormone level [2]) is on record?
The value was “effective GnRH antagonist”.
